This note sets out measurements from patent US7981871B2, “Modified macromolescules and associated methods of synthesis and use” (University of Utah Research Foundation, priority 2003, dated 2011).

The structures appear in SMILES notation.

Assay in all cases: Sensitivity to PI3K inhibitor and Taxol in 3-D culture (Carbylan-GSX hydrogels)
What all share (format): cell-based, Human

For experiment [1], the system named is MDA-MB-468. Conditions: MDA-MB-468 in Carbylan-GSX; 10 mM LY-294002 or 1 mg/ml paclitaxel; two weeks. The procedure: (§1) Human breast cancer cell lines (MDA-MB-231 and MDA-MB-468), colon adenocarcinoma cell lines (Caco2, HCT116, and HCA7), and ovarian cancer cell (SK-OV-3) were obtained from American Type Culture Collections (ATCC) and maintained in RPMI 1640 medium (GIBCO) supplemented with 10 mM HEPES, 10% fetal bovine serum (Hyclone), 0.4 mM sodium pyruvate, and […], 100 U/ml penicillin, and 100 ug/ml streptomycin.
(§2) When reaching 80-90% confluence, the above cell lines were trypsinized with 0.25% trypsin containing 1 mM EDTA and suspended in 1.25% (w/v) Carbylan™-S and 3% (w/v) gelatin-DTPH in a 50:50 (v/v) ratio in serum-free RPMI medium (pH 7.4), and then 4% (w/v) solution of PEGDA in DPBS buffer was added to the Carbylan™-S/gelatin-DTPH solution at a ratio of 4:1 (Carbylan™-S :PEGDA, v:v) and mixed by vortexing for 30 second. The final concentration of cells in Carbylan™-GSX solution was 2.0×10^6/ml. Aliquots ([…]) of each reaction mixture loaded with cells were transferred by pipette into 24-well cell culture inserts (Coming incorporated, Coming, N.Y.) with 6.5 mm in diameter and […]. The cell loaded inserts were incubated in incubator (37° C. and 5% CO2) for two hours and then 2 ml of RPMI 1640 medium containing 10% FBS was added into each into each insert. The media were changed every two days. Two weeks after the initial culture, the media were removed from the inserts and changed with 10 mM of LY-294002 (Sigma) and 1 mg/ml of paclitaxel (Sigma) in RPMI 1640 medium containing 0.5% FBS. There were total eight inserts for each reagent each cell line. The media were also changed every two days. Two weeks after the media were changed to LY-294002 and paclitaxel containing media, the media were removed from the inserts and changed with 1.5 ml RPMI 1640 media containing 5% FBS and 15% (v/v) CellTiter 96 aqueous one solution cell proliferation assay (Promega, Madison, Wis.) and incubated in incubator (37° C. and 5% CO2) for three hours and then the reaction solution was transferred into 96-well plate ([…]) and the absorbance was read at 550 nm with an OPTI Max microplate reader (Molecular Devices). The inserts were rinsed twice with DPBS buffer and stained with FDA and PI at RT for 5 min and observed using a confocal laser scanning microscope (LSM 510, Carl Zeiss Microimaging, Inc., Thornwood, N.Y.).

In experiment [2] the test system is SK-OV-3. The method, then:
as §1, §2

Experiment [3] concerns HCT116. Particulars: 10 mM LY-294002 or 1 mg/ml paclitaxel, two weeks. The method, then:
as §1, §2

Experiment [4] has as its system HCA7. Particulars: 10 mM LY-294002 or 1 mg/ml paclitaxel, two weeks. The procedure: as §1, §2
For experiment [5], the system named is MDA-MB-231. Particulars: MDA-MB-231 in Carbylan-GSX; 10 mM LY-294002 or 1 mg/ml paclitaxel; two weeks. The procedure: as §1, §2
Experiment [6] deals with CaCo-2. The method, then: as §1, §2

For `CC(=O)O[C@H]1C(=O)[C@@]2(C)[C@H]([C@H](OC(=O)c3ccccc3)[C@]3(O)C[C@H](OC(=O)[C@H](O)[C@@H](NC(=O)c4ccccc4)c4ccccc4)C(C)=C1C3(C)C)[C@]1(OC(C)=O)CO[C@@H]1C[C@@H]2O` [paclitaxel], the “proliferation (CellTiter 96, absorbance at 550 nm)” value is “inhibited” in experiment [1]; “Neither LY294002 and paclitaxel showed any inhibition effects” in experiment [2] (SK-OV-3 in Carbylan-GSX, 10 mM LY-294002 or 1 mg/ml paclitaxel, two weeks); “inhibited” in experiment [3]; “inhibited” in experiment [4]; “Neither LY294002 and paclitaxel showed any inhibition effects” in experiment [5]; “inhibited” in experiment [6] (CaCo-2 in Carbylan-GSX, 10 mM LY-294002 or 1 mg/ml paclitaxel, two weeks). Moreover, the “3-D morphology (FDA/PI staining)” value in experiment [2] (SK-OV-3, compared to cells cultured in normal medium) is “no obvious difference”. Also, the “cell density in sECM hydrogels (FDA/PI staining)” value in experiment [6] (Caco-2, compared to cells cultured in normal medium) is listed as “decreased”.
